# Measurements published in patent US20250206730A1 (AUTOTELIC BIO INC., priority 2022, published 2025).
# Tests used:
# TGF-β signaling [1] = test: Assay for evaluating cellular inhibition of TGF-β signaling, HEK293 (SBE reporter) luciferase reporter; assay type: cell-based; settings: Homo sapiens; HEK293 (SBE reporter) stable cells, 0.5% FBS, 2 h pre-treatment, TGF-β1 2 ng/mL 24 h; read-out: IC50 HEK 293 Cell
# Method: [Example 2] Assay for Evaluating Cellular Inhibition of TGF-β Signaling
# 4T1 (SBE-luc2P) transient pool that have SBE-luc2P (hygro) expression plasmid or HEK293 (SBE reporter) stable cells (BPS bioscience) were seeded at 6×10^3 cells/well or 2.5×10^4 cells/well in 96-well plate, respectively. 4T1 (SBE-luc2P) transient pool were pre-treated with novel compound synthesized in Example 1 above in 0.2% FBS at approximately 60% confluence at 37° C. in 5% CO2. Also, HEK293 (SBE reporter) stable cells were pre-treated with each test compounds of formula in 0.5% FBS at approximately 80% confluence at 37° C. in 5% CO2. After 2 hours, cells were treated with TGF-β1 (2 ng/mL) for 24 h at 37° C. in 5% CO2. Cell lysates were prepared using Luciferase Assay (Promega) according to the manufacturer's instruction, and luminescence was measured by a plate reader, Biotek Synergy H1 (Vermont, USA).
# ALK5 kinase = biological target: T1, ALK5 kinase (Homo sapiens, UniProt P36897); test: LanthaScreen Eu Kinase Binding Assay; settings: Kinase Tracer 178, Eu-anti-GST Antibody, read-out: IC50 Enzyme
# T1 sequence (P36897 34-503): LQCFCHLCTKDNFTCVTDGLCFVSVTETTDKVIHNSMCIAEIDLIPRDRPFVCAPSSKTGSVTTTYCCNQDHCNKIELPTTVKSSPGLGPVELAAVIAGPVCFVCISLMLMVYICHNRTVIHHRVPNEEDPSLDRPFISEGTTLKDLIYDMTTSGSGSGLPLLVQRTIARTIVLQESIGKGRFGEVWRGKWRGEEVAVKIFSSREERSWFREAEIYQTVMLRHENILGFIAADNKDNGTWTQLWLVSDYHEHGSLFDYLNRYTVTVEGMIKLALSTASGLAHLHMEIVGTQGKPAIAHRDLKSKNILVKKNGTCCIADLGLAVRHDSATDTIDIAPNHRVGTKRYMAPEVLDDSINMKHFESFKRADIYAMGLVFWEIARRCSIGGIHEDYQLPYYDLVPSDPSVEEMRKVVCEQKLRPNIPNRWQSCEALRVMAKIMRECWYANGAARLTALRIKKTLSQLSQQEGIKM
# Outline: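 Compound (1% DMSO final) preincubated 30 min at RT with GST-tagged ALK5, then Eu-anti-GST antibody and Kinase Tracer 178 added for 60 min at RT. TR-FRET read at 340 nm excitation; 665/615 nm emission ratio falls as compound binding rises.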
# TGF-β signaling [2] = test: Assay for evaluating cellular inhibition of TGF-β signaling, 4T1 (SBE-luc2P) luciferase reporter; assay type: cell-based; settings: Mus musculus, 4T1, 4T1 (SBE-luc2P) transient pool, 0.2% FBS, 2 h pre-treatment, TGF-β1 2 ng/mL 24 h; read-out: IC50 4T1 Cell
# Outline: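 4T1 cells transiently carrying SBE-luc2P (6×10^3/well, 0.2% FBS, ~60% confluence) or HEK293 SBE-reporter stable cells (2.5×10^4/well, 0.5% FBS, ~80% confluence) pre-treated with compound for 2 h. TGF-β1 (2 ng/mL) then added for 24 h at 37 °C; luciferase luminescence read from lysates.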
IC50 (TGF-β signaling [1]) [nM],IC50 (ALK5 kinase) [nM],IC50 (TGF-β signaling [2]) [nM],Compound
< 100,–,–,"CCc1nc(-c2ccccc2)c(Oc2ccnc(Nc3ccc(N4CCC(NC)C4)cn3)c2)s1 (stereo not shown) [A-312, 4-((2-Ethyl-4-phenylthiazol-5-yl)oxy)-N-(5-(3-(methylamino)pyrrolidin-1-yl)pyridin-2-yl)pyridin-2-amine]"
< 100,–,–,"CCc1nc(-c2ccccc2)c(Oc2ccnc(Nc3ccc(NCCN4CCN(CC)CC4)cn3)c2)s1 [A-211, N^2-(4-((2-Ethyl-4-phenylthiazol-5-yl)oxy)pyridin-2-yl)-N^5-(2-(4-ethylpiperazin-1-yl)ethyl)pyridine-2,5-diamine]"
–,< 100,> 100,"COc1nc(-c2ccccc2)c(Oc2ccnc(Nc3cccc(C(=O)O)c3)c2)s1 [A-144, 3-((4-((2-Methoxy-4-phenylthiazol-5-yl)oxy)pyridin-2-yl)amino)benzoic acid]"
–,< 100,< 100,"CNC(=O)c1cccc(Nc2cc(Oc3sc(C)nc3-c3ccccc3)ccn2)c1 [A-69, N-Methyl-3-((4-((2-methyl-4-phenylthiazol-5-yl)oxy)pyridin-2-yl)amino)benzamide]"
–,< 100,< 100,"NC(=O)c1ccc(Nc2cc(Oc3sc(C(F)(F)F)nc3-c3ccccc3)ccn2)nc1 [A-146, 6-((4-((4-Phenyl-2-(trifluoromethyl)thiazol-5-yl)oxy)pyridin-2-yl)amino)nicotinamide]"
–,< 100,> 100,Cc1nc(-c2ccccc2)c(Oc2ccnc(Nc3ccc(C(N)=O)cc3)c2)s1 [A-63]
–,< 100,< 100,"CNC(=O)c1ccc(Nc2cc(Oc3sc(N(C)C)nc3-c3ccccc3)ccn2)nc1 [A-166, 6-((4-((2-(Dimethylamino)-4-phenylthiazol-5-yl)oxy)pyridin-2-yl)amino)-N-methylnicotinamide]"
–,< 100,< 100,"CCc1nc(-c2cccc(C)n2)c(Oc2ccnc(Nc3ccnc(C(=O)NC)c3)c2)s1 [A-265, 4-((4-((2-Ethyl-4-(6-methylpyridin-2-yl)thiazol-5-yl)oxy)pyridin-2-yl)amino)-N-methylpicolinamide]"
–,< 100,> 100,"CNc1nc(-c2ccccc2)c(Oc2ccnc(Nc3ccc(C(=O)O)cc3)c2)s1 [A-56, 4-((4-((2-(Methylamino)-4-phenylthiazol-5-yl)oxy)pyridin-2-yl)amino)benzoic acid]"
–,< 100,> 100,"COC(=O)c1cccc(Nc2cc(Oc3sc(Br)nc3-c3ccccc3)ccn2)c1 [A-170, Methyl 3-((4-((2-bromo-4-phenylthiazol-5-yl)oxy)pyridin-2-yl)amino)benzoate]"
–,< 100,< 100,"Cc1cccc(-c2nc(C(F)(F)F)sc2Oc2ccnc(Nc3cccc(S(N)(=O)=O)c3)c2)n1 [A-289, 3-((4-((4-(6-Methylpyridin-2-yl)-2-(trifluoromethyl)thiazol-5-yl)oxy)pyridin-2-yl)amino)benzenesulfonamide]"
–,> 100,> 100,"CNc1nc(-c2ccc3ccccc3c2)c(Oc2ccnc(Nc3cccc(S(N)(=O)=O)c3)c2)s1 [A-233, 3-((4-((2-(Methylamino)-4-(naphthalen-2-yl)thiazol-5-yl)oxy)pyridin-2-yl)amino)benzenesulfonamide]"
–,< 100,< 100,"NC(=O)c1ccc(Nc2cc(Oc3sc(N)nc3-c3ccccc3)ccn2)nc1 [A-9, 6-((4-((2-Amino-4-phenylthiazol-5-yl)oxy)pyridin-2-yl)amino)nicotinamide]"
–,< 100,> 100,"CC(C)c1nc(-c2ccccc2)c(Oc2ccnc(Nc3ccnc(C(C)(C)O)c3)c2)s1 [A-223, 2-(4-((4-((2-Isopropyl-4-phenylthiazol-5-yl)oxy)pyridin-2-yl)amino)pyridin-2-yl)propan-2-ol]"
–,< 100,< 100,"CNC(=O)c1cccc(Nc2cc(Oc3sc(C(C)C)nc3-c3ccccc3)ccn2)n1 [A-225, 6-((4-((2-Isopropyl-4-phenylthiazol-5-yl)oxy)pyridin-2-yl)amino)-N-methylpicolinamide]"
–,< 100,< 100,"Cc1cccc(-c2nc(C(C)C)sc2Oc2ccnc(Nc3ccc(C(N)=O)cn3)c2)n1 [A-288, 6-((4-((2-Isopropyl-4-(6-methylpyridin-2-yl)thiazol-5-yl)oxy)pyridin-2-yl)amino)nicotinamide]"
–,< 100,< 100,"CN(C)c1nc(-c2ccccc2)c(Oc2ccnc(Nc3ccc(C(N)=O)cc3)c2)s1 [A-157, 4-((4-((2-(Dimethylamino)-4-phenylthiazol-5-yl)oxy)pyridin-2-yl)amino)benzamide]"
–,< 100,< 100,"NC(=O)c1ccc(Nc2cc(Oc3sc(C4CC4)nc3-c3ccccc3)ccn2)nc1 [A-129, 6-((4-((2-Cyclopropyl-4-phenylthiazol-5-yl)oxy)pyridin-2-yl)amino)nicotinamide]"
–,< 100,< 100,"Cc1nc(-c2ccccc2)c(Oc2ccnc(Nc3ccc(N4CCNCC4)cc3)c2)s1 [A-104, 4-((2-Methyl-4-phenylthiazol-5-yl)oxy)-N-(4-(piperazin-1-yl)phenyl)pyridin-2-amine]"
–,< 100,> 100,"Cc1nc(-c2ccccc2)c(Oc2ccnc(Nc3cccc(S(=O)(=O)O)c3)c2)s1 [A-68, 3-((4-((2-Methyl-4-phenylthiazol-5-yl)oxy)pyridin-2-yl)amino)benzenesulfonic acid]"
–,< 100,> 100,"NS(=O)(=O)c1cccc(Nc2cc(Oc3sc(NC4CC4)nc3-c3ccccc3)ccn2)c1 [A-45, 3-((4-((2-(Cyclopropylamino)-4-phenylthiazol-5-yl)oxy)pyridin-2-yl)amino)benzenesulfonamide]"
–,< 100,< 100,"CCc1nc(-c2ccccc2)c(Oc2ccnc(Nc3cccc(NS(=O)(=O)CC)c3)c2)s1 [A-188, N-(3-((4-((2-Ethyl-4-phenylthiazol-5-yl)oxy)pyridin-2-yl)amino)phenyl)ethanesulfonamide]"
–,< 100,> 100,"Cc1nc(-c2ccccc2)c(Oc2ccnc(Nc3ccc(C(N)=O)nc3)c2)s1 [A-91, 5-((4-((2-Methyl-4-phenylthiazol-5-yl)oxy)pyridin-2-yl)amino)picolinamide]"
–,< 100,< 100,"O=C(O)c1ccc(Nc2cc(Oc3sc(C(F)(F)F)nc3-c3ccccc3)ccn2)nc1 [A-149, 6-((4-((4-Phenyl-2-(trifluoromethyl)thiazol-5-yl)oxy)pyridin-2-yl)amino)nicotinic acid]"
–,< 100,> 100,"CNc1nc(-c2ccccc2)c(Oc2ccnc(Nc3cccc(C(N)=O)c3)c2)s1 [A-52, 3-((4-((2-(Methylamino)-4-phenylthiazol-5-yl)oxy)pyridin-2-yl)amino)benzamide]"
–,< 100,> 100,"Cc1nc(-c2ccccc2)c(Oc2ccnc(Nc3cccc(C(=O)O)c3)c2)s1 [A-109, 3-((4-((2-Methyl-4-phenylthiazol-5-yl)oxy)pyridin-2-yl)amino)benzoic acid]"
–,< 100,< 100,"CN(C)c1nc(-c2ccccc2)c(Oc2ccnc(Nc3ccc(C(N)=O)cn3)c2)s1 [A-163, 6-((4-((2-(Dimethylamino)-4-phenylthiazol-5-yl)oxy)pyridin-2-yl)amino)nicotinamide]"
–,< 100,> 100,"CN(C)c1nc(-c2ccccc2)c(Oc2ccnc(Nc3cccc(C(=O)O)n3)c2)s1 [A-169, 6-((4-((2-(Dimethylamino)-4-phenylthiazol-5-yl)oxy)pyridin-2-yl)amino)picolinic acid]"
–,< 100,< 100,"CCc1nc(-c2cccc(C)n2)c(Oc2ccnc(Nc3ccc(C(=O)NC)cn3)c2)s1 [A-253, 6-((4-((2-Ethyl-4-(6-methylpyridin-2-yl)thiazol-5-yl)oxy)pyridin-2-yl)amino)-N-methylnicotinamide]"
–,< 100,> 100,"CCc1nc(-c2cccc(C)n2)c(Oc2ccnc(Nc3cc(C(=O)O)ccn3)c2)s1 [A-266, 2-((4-((2-Ethyl-4-(6-methylpyridin-2-yl)thiazol-5-yl)oxy)pyridin-2-yl)amino)isonicotinic acid]"
